{
  "source": "ChEMBL document CHEMBL5338729",
  "about": "“E3 Ligases Meet Their Match: Fragment-Based Approaches to Discover New E3 Ligands and to Unravel E3 Biology” (J Med Chem, 2023)",
  "key": {"Protein cereblon": {"biological_target": "Protein cereblon (Homo sapiens, UniProt Q96SW2)", "sequence (Q96SW2 whole entry)": "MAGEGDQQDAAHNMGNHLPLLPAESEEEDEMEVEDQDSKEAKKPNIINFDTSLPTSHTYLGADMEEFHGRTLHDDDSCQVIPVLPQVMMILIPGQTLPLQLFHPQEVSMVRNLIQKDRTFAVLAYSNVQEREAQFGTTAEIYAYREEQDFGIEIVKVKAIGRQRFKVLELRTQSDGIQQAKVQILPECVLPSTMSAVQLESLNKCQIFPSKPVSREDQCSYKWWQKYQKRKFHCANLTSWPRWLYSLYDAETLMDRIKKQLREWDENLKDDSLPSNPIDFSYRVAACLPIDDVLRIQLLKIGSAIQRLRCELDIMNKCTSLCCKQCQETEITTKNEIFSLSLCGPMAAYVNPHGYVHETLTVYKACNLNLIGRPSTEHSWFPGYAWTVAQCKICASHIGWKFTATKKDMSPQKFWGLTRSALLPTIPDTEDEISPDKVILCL", "assay": "Binding affinity to CRBN (unknown origin) assessed as inhibition constant by FRET assay"}, "[1]": {"biological_target": "T1, E3 ubiquitin-protein ligase RNF31 (Homo sapiens, UniProt Q96EP0)", "T1 sequence (Q96EP0 whole entry)": "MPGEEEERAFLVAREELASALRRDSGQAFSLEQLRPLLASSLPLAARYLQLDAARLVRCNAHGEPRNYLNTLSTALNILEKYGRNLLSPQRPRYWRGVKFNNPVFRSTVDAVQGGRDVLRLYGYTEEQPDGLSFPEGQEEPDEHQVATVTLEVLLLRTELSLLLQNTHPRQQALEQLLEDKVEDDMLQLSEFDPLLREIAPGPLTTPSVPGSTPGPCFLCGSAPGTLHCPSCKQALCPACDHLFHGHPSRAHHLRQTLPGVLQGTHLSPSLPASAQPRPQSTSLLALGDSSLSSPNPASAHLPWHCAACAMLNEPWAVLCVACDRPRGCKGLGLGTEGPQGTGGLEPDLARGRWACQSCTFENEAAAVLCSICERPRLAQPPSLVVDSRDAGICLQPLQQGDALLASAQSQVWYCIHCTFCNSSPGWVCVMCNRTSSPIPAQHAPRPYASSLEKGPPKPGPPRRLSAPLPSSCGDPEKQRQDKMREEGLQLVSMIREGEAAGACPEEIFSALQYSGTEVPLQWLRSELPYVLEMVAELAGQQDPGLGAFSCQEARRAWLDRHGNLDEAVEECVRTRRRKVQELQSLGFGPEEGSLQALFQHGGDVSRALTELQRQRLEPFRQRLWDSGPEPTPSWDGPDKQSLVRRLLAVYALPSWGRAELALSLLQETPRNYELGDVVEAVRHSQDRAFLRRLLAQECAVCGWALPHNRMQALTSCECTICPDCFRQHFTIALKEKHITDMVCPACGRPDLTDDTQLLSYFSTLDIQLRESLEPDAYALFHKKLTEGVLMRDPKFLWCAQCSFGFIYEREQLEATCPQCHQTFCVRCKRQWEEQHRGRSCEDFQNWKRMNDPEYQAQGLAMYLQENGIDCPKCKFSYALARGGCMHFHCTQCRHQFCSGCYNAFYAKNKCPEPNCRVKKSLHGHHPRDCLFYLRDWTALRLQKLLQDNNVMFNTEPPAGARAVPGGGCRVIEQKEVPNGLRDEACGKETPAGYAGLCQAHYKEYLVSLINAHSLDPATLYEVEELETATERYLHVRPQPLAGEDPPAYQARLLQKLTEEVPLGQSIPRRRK", "assay": "Binding affinity to HOIP (unknown origin) assessed as dissociation constant"}, "[2]": {"assay": "Inhibition of RING1B-BMI1 (unknown origin)", "parameters": "species or system Homo sapiens"}, "[3]": {"assay": "Binding affinity to RING1B-BMI1 (unknown origin)", "parameters": "species or system Homo sapiens"}, "[4]": {"biological_target": "von Hippel-Lindau disease tumor suppressor (Homo sapiens, UniProt P40337)", "sequence (P40337 whole entry)": "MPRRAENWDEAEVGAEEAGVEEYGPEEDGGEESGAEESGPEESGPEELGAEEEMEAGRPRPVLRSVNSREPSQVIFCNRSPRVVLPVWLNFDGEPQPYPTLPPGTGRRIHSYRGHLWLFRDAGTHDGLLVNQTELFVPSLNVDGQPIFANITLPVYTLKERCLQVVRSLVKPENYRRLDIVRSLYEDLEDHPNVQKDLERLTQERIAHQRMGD", "assay": "Binding affinity to VHL (unknown origin) assessed as dissociation constant by isothermal titration calorimetry assay"}, "[5]": {"biological_target": "T2, E3 ubiquitin-protein ligase RNF4 (Homo sapiens, UniProt P78317)", "T2 sequence (P78317 whole entry)": "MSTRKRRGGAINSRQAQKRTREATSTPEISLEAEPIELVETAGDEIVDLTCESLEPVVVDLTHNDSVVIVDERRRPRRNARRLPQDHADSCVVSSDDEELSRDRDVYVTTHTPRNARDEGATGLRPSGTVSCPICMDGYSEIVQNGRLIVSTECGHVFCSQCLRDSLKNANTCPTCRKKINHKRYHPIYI", "assay": "Inhibition of human recombinant RNF4 incubated for 30 mins by SDS-PAGE based densitometry"}},
  "data": [
    {"smiles": "O=C1CCN1", "values": [
      {"measurement": "Ki", "setting": "Protein cereblon", "result": 77, "unit": "µM"}
    ]},
    {"smiles": "O=c1cc[nH]c(=O)[nH]1", "note": "[URACIL]", "values": [
      {"measurement": "Ki", "setting": "Protein cereblon", "result": 35, "unit": "µM"}
    ]},
    {"smiles": "COC(=O)/C=C/CNC(=O)c1cc2c([nH]c1=O)CCC2", "values": [
      {"measurement": "Kd", "setting": "[1]", "result": "> 400", "unit": "µM"}
    ]},
    {"smiles": "CCc1c(-c2cccc3[nH]ccc23)[nH]c(C(=O)O)c1-c1ccccc1Cl", "values": [
      {"measurement": "IC50", "setting": "[2]", "result": 12, "unit": "µM"},
      {"measurement": "Kd", "setting": "[3]", "result": 11.5, "unit": "µM"}
    ]},
    {"smiles": "OCc1ccc(-n2cccc2)cc1", "values": [
      {"measurement": "Kd", "setting": "[4]", "result": 5000, "unit": "µM"}
    ]},
    {"smiles": "O=C(CCl)Nc1ccc(Oc2ccccc2)cc1", "values": [
      {"measurement": "IC50", "setting": "[5]", "result": 10, "unit": "µM"}
    ]},
    {"smiles": "O=C(O)c1ccc(-c2ccccc2)s1", "values": [
      {"measurement": "Kd", "setting": "[3]", "result": "~7000", "unit": "µM"}
    ]},
    {"smiles": "O=C1CCSc2ccc(Cl)cc21", "values": [
      {"measurement": "Kd", "setting": "[4]", "result": 6700, "unit": "µM"}
    ]},
    {"smiles": "O=C1CCC(=O)N1", "note": "[SUCCINIMIDE]", "values": [
      {"measurement": "Ki", "setting": "Protein cereblon", "result": 4.3, "unit": "µM"}
    ]},
    {"smiles": "CC(C)c1c(-c2cccc3[nH]ccc23)[nH]c(C(=O)O)c1-c1c(Cl)ccc2[nH]ccc12", "values": [
      {"measurement": "IC50", "setting": "[2]", "result": 1.6, "unit": "µM"},
      {"measurement": "Kd", "setting": "[3]", "result": 2.8, "unit": "µM"}
    ]},
    {"smiles": "O=C1CCCCN1", "values": [
      {"measurement": "Ki", "setting": "Protein cereblon", "result": 146, "unit": "µM"}
    ]},
    {"smiles": "CC(=O)NC(N)=O", "values": [
      {"measurement": "Ki", "setting": "Protein cereblon", "result": 522, "unit": "µM"}
    ]},
    {"smiles": "O=C1CNC(=O)N1", "note": "[HYDANTOIN]", "values": [
      {"measurement": "Ki", "setting": "Protein cereblon", "result": 43, "unit": "µM"}
    ]},
    {"smiles": "O=C1CCNC(=O)N1", "values": [
      {"measurement": "Ki", "setting": "Protein cereblon", "result": 88, "unit": "µM"}
    ]}
  ]
}
